Measured values taken from PubChem BioAssay AID330 (DTP/NCI, 2004).
“And” between values parts separate entries of the source, which are not always exact repeats. Equal values may be shown once. Toxic doses and inconclusive results are not listed. The calls were made as follows: active = survival T/C of 150% or more; inactive = T/C below 125% in these data. Square brackets hold non-standard residues; d marks the D form. Peptide text beside a SMILES is read from it. ξ: configuration not given here. ξY = NC(Cc1ccc(O)cc1)C(=O)O

Test system: P388 leukemia ip, CD2F1 mice, survival T/C
Assay: NCI In Vivo Anticancer Drug Screen. Data for tumor model P388 Leukemia (intraperitoneal) in CD2F1 (CDF1) mice
Details: endpoint: median survival time, higher = longer survival
Procedure, shortened: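 Mice carrying the transplanted tumor received test compound or vehicle. Survival was recorded in each group, and the value is the treated-group measurement divided by that of the vehicle-treated control group.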

[1] = dose: 50.0 mg/kg/injection, schedule: Q01DX009 (ip), vehicle: saline
[2] = dose: 100.0 mg/kg/injection, schedule: Q01DX009 (ip), vehicle: saline
[3] = dose: 200.0 mg/kg/injection, schedule: Q01DX009 (ip), vehicle: saline
[4] = dose: 400.0 mg/kg/injection, schedule: Q01DX009 (ip), vehicle: saline
[5] = dose: 50.0 mg/kg/injection, schedule: Q01DX005 (ip), vehicle: Klucel (hydroxypropylcellulose) (HPC)

Measured: T/C

C[C@]12C=CC(=O)C=C1CC[C@@H]1[C@@H]2C(=O)C[C@@]2(C)[C@H]1CC[C@]2(O)C(=O)CO
inactive: dose: 25.0 mg/kg/injection, schedule: Q01DX009 (ip), vehicle: saline 106 % of control | dose: 30.0 mg/kg/injection, schedule: Q04DX002 (sc), vehicle: Klucel (hydroxypropylcellulose) (HPC) 100 % of control and 95 % of control | dose: 44.0 mg/kg/injection, schedule: Q04DX002 (sc), vehicle: Klucel (hydroxypropylcellulose) (HPC) 100 % of control | dose: 45.0 mg/kg/injection, schedule: Q04DX002 (sc), vehicle: Klucel (hydroxypropylcellulose) (HPC) 104 % of control | dose: 50.0 mg/kg/injection, schedule: Q01DX001 (oral), vehicle: saline 93 % of control | dose: 50.0 mg/kg/injection, schedule: Q01DX005 (sc), vehicle: Klucel (hydroxypropylcellulose) (HPC) 111 % of control | [1] 106 % of control | dose: 50.0 mg/kg/injection, schedule: Q01DX009 (oral), vehicle: saline 100 % of control | dose: 67.0 mg/kg/injection, schedule: Q04DX002 (sc), vehicle: Klucel (hydroxypropylcellulose) (HPC) 100 % of control and 104 % of control | dose: 100.0 mg/kg/injection, schedule: Q01DX001 (oral), vehicle: saline 100 % of control | dose: 100.0 mg/kg/injection, schedule: Q01DX005 (sc), vehicle: Klucel (hydroxypropylcellulose) (HPC) 111 % of control | [2] 106 % of control | dose: 100.0 mg/kg/injection, schedule: Q01DX009 (oral), vehicle: saline 114 % of control | dose: 100.0 mg/kg/injection, schedule: Q04DX002 (sc), vehicle: Klucel (hydroxypropylcellulose) (HPC) 98 % of control and 107 % of control | dose: 125.0 mg/kg/injection, schedule: Q01DX001 (ip), vehicle: steriod suspending solution 98 % of control and 95 % of control | dose: 133.0 mg/kg/injection, schedule: Q01DX001 (sc), vehicle: Klucel (hydroxypropylcellulose) (HPC) 100 % of control | dose: 200.0 mg/kg/injection, schedule: Q01DX001 (oral), vehicle: saline 100 % of control | dose: 200.0 mg/kg/injection, schedule: Q01DX001 (sc), vehicle: Klucel (hydroxypropylcellulose) (HPC) 100 % of control | dose: 200.0 mg/kg/injection, schedule: Q01DX005 (sc), vehicle: Klucel (hydroxypropylcellulose) (HPC) 115 % of control | [3] 106 % of control | dose: 200.0 mg/kg/injection, schedule: Q01DX009 (oral), vehicle: saline 100 % of control | dose: 250.0 mg/kg/injection, schedule: Q01DX001 (ip), vehicle: steriod suspending solution 91 % of control and 95 % of control | dose: 300.0 mg/kg/injection, schedule: Q01DX001 (sc), vehicle: Klucel (hydroxypropylcellulose) (HPC) 107 % of control | dose: 400.0 mg/kg/injection, schedule: Q01DX001 (oral), vehicle: saline 87 % of control | dose: 400.0 mg/kg/injection, schedule: Q01DX005 (sc), vehicle: Klucel (hydroxypropylcellulose) (HPC) 115 % of control | [4] 106 % of control | dose: 400.0 mg/kg/injection, schedule: Q01DX009 (oral), vehicle: saline 114 % of control | dose: 450.0 mg/kg/injection, schedule: Q01DX001 (sc), vehicle: Klucel (hydroxypropylcellulose) (HPC) 108 % of control | dose: 500.0 mg/kg/injection, schedule: Q01DX001 (ip), vehicle: steriod suspending solution 91 % of control and 94 % of control | dose: 800.0 mg/kg/injection, schedule: Q01DX001 (oral), vehicle: saline 100 % of control | dose: 800.0 mg/kg/injection, schedule: Q01DX005 (ip), vehicle: Klucel (hydroxypropylcellulose) (HPC) 108 % of control | dose: 800.0 mg/kg/injection, schedule: Q01DX005 (sc), vehicle: Klucel (hydroxypropylcellulose) (HPC) 113 % of control | dose: 800.0 mg/kg/injection, schedule: Q01DX009 (oral), vehicle: saline 107 % of control | dose: 1000.0 mg/kg/injection, schedule: Q01DX001 (ip), vehicle: steriod suspending solution 34 % of control | dose: 1600.0 mg/kg/injection, schedule: Q01DX005 (ip), vehicle: Klucel (hydroxypropylcellulose) (HPC) 116 % of control | dose: 1600.0 mg/kg/injection, schedule: Q01DX005 (sc), vehicle: Klucel (hydroxypropylcellulose) (HPC) 100 % of control | dose: 6400.0 mg/kg/injection, schedule: Q01DX005 (sc), vehicle: Klucel (hydroxypropylcellulose) (HPC) 102 % of control

CC1CN2CC(C)O[Si](CC[Si](C)(C)C)(O1)OC(C)C2 (centres undefined)
inactive: [5] 104 % of control | dose: 100.0 mg/kg/injection, schedule: Q01DX005 (ip), vehicle: Klucel (hydroxypropylcellulose) (HPC) 90 % of control

NCC(=O)NC(Cc1ccc(O)cc1)C(=O)O (centres undefined) (H-Gly-[ξY]-OH)
inactive: [2] 113 % of control | dose: 100.0 mg/kg/injection, schedule: Q04DX003 (ip), vehicle: saline 98 % of control | [3] 101 % of control | dose: 200.0 mg/kg/injection, schedule: Q04DX003 (ip), vehicle: saline 105 % of control | [4] 105 % of control | dose: 400.0 mg/kg/injection, schedule: Q04DX003 (ip), vehicle: saline 104 % of control

CC(=O)OC1CC(C(=O)c2ccccc2)N2N=CN(c3ccccc3)C12 (centres undefined)
inactive: dose: 60.0 mg/kg/injection, schedule: Q01DX005 (ip), vehicle: Klucel (hydroxypropylcellulose) (HPC) 103 % of control | dose: 120.0 mg/kg/injection, schedule: Q01DX005 (ip), vehicle: Klucel (hydroxypropylcellulose) (HPC) 102 % of control | dose: 240.0 mg/kg/injection, schedule: Q01DX005 (ip), vehicle: Klucel (hydroxypropylcellulose) (HPC) 104 % of control

CCCCC(=O)Nc1ncc([N+](=O)[O-])s1
inactive: dose: 25.0 mg/kg/injection, schedule: Q01DX009 (ip), vehicle: Klucel (hydroxypropylcellulose) (HPC) 110 % of control | dose: 50.0 mg/kg/injection, schedule: Q01DX009 (ip), vehicle: Klucel (hydroxypropylcellulose) (HPC) 102 % of control and 104 % of control and 116 % of control | dose: 100.0 mg/kg/injection, schedule: Q01DX009 (ip), vehicle: Klucel (hydroxypropylcellulose) (HPC) 101 % of control and 103 % of control and 113 % of control | dose: 200.0 mg/kg/injection, schedule: Q01DX009 (ip), vehicle: Klucel (hydroxypropylcellulose) (HPC) 105 % of control and 111 % of control and 123 % of control

COc1ccc(C)cc1NC(=O)/N=C1/NC(=O)CS1
inactive: [1] 91 % of control | [2] 97 % of control | [3] 91 % of control

ClC(Cl)=Nc1cc(Cl)c(Cl)cc1Cl
inactive: [1] 99 % of control | [2] 90 % of control | [3] 97 % of control

Nc1nc2[nH]c(=O)cnc2c(=O)[nH]1
inactive: dose: 12.5 mg/kg/injection, schedule: Q01DX009 (ip), vehicle: saline with Tween-80 107 % of control | dose: 25.0 mg/kg/injection, schedule: Q01DX009 (ip), vehicle: saline with Tween-80 107 % of control | dose: 50.0 mg/kg/injection, schedule: Q01DX009 (ip), vehicle: saline with Tween-80 108 % of control | dose: 50.0 mg/kg/injection, schedule: Q01DX009 (ip), vehicle: suspension in saline 106 % of control | dose: 100.0 mg/kg/injection, schedule: Q01DX009 (ip), vehicle: suspension in saline 91 % of control | dose: 200.0 mg/kg/injection, schedule: Q01DX009 (ip), vehicle: suspension in saline 107 % of control | dose: 300.0 mg/kg/injection, schedule: Q01DX009 (ip), vehicle: saline 91 % of control

CCOC(=O)/C=C/CI
inactive: dose: 25.0 mg/kg/injection, schedule: Q01DX009 (ip), vehicle: other 105 % of control and 98 % of control | dose: 50.0 mg/kg/injection, schedule: Q01DX009 (ip), vehicle: other 114 % of control and 120 % of control and 97 % of control | dose: 100.0 mg/kg/injection, schedule: Q01DX009 (ip), vehicle: other 117 % of control and 97 % of control

N/C(=N\[N+](=O)[O-])N1CCCCCC1
inactive: dose: 12.5 mg/kg/injection, schedule: Q01DX005 (ip), vehicle: Klucel (hydroxypropylcellulose) (HPC) 106 % of control | dose: 25.0 mg/kg/injection, schedule: Q01DX005 (ip), vehicle: Klucel (hydroxypropylcellulose) (HPC) 100 % of control | [5] 107 % of control

CCOc1cc2cc(/C=N/OCC3CO3)c(Cl)nc2cc1OCC (centres undefined)
inactive: dose: 50.0 mg/kg/injection, schedule: Q01DX005 (ip), vehicle: suspension in saline 92 % of control | dose: 100.0 mg/kg/injection, schedule: Q01DX005 (ip), vehicle: suspension in saline 92 % of control | dose: 200.0 mg/kg/injection, schedule: Q01DX005 (ip), vehicle: suspension in saline 90 % of control
